From US10968462B2, “Plants having increased tolerance to herbicides” (BASF AGRO B.V., priority 2013, dated 2021) come the findings set out here.

Assay type in all cases: biochemical, Amaranthus tuberculatum
The target of test [1] is wild type and amino acid substituted PPO enzyme (PPO2) of SEQ ID NO: 2 (AMARE) (Amaranthus tuberculatus, UniProt Q0NZW9, F204I/T208S, form not given).
In test [2] the target is wild type and amino acid substituted PPO enzyme (PPO2) of SEQ ID NO: 2 (AMARE).
Test [3] addresses wild type and amino acid substituted PPO enzyme (PPO2) of SEQ ID NO: 2 (AMARE) (Amaranthus tuberculatus, UniProt Q0NZW9, R128A/L397D, form not given).
Test [4] has as its target wild type and amino acid substituted PPO enzyme (PPO2) of SEQ ID NO: 2 (AMARE) (Amaranthus tuberculatus, UniProt Q0NZW9, F204I/F457M, form not given).
In test [5] the target is wild type and amino acid substituted PPO enzyme (PPO2) of SEQ ID NO: 2 (AMARE) (Amaranthus tuberculatus, UniProt Q0NZW9, R128L, form not given).

As a reminder, the IC50 is the concentration needed to halve the response being measured. A higher IC50 goes with weaker potency. In the case of `C#CCN1C(=O)C(F)(F)Oc2cc(F)c(-n3c(=O)n(C)c(=S)n(C)c3=O)cc21` [1,5-dimethyl-6-thioxo-3-(2,2,7-trifluoro-3-oxo-4-(prop-2-yny] [reference compound], the IC50 in test [1] was found to be 0.129 nM; in test [2] it was 246 nM; in test [3], 5.9 nM; in test [4], 0.0752 nM.

In the case of `CC(C)N(C)S(=O)(=O)NC(=O)c1cc(-n2c(=O)cc(C(F)(F)F)n(C)c2=O)c(F)cc1Cl` [Saflufenacil, saflufenacil], the IC50 turned out to be 0.0589 nM in test [1], 222 nM in test [5] and 0.0189 nM in test [4].
